Broadly, the IC50 is the concentration at which inhibition is half-maximal. A high value points to weaker potency.

Molecules are shown by their SMILES. Where only a bound is given, the exact number is not on record here.

In patent US10640534B2 (Agios Pharmaceuticals, Inc., priority 2012, dated 2020) one finds IC50 data, which are given here for 19 compounds.

For this assay, the system named is U87MG cells. The assay can be described thus: Cellular assay, inhibition of 2-HG production in U87MG cells. Type of assay: cell-based. The conditions noted are these: Homo sapiens, U-87 MG, 48 h. As to the method: Cells (HT1080 or U87MG) are grown in T125 flasks in DMEM containing 10% FBS, 1× penicillin/streptomycin and 500 ug/mL G418 (present in U87MG cells only). They are harvested by trypsin and seeded into 96 well white bottom plates at a density of 5000 cell/well in 100 ul/well in DMEM with 10% FBS. […] Cells are incubated overnight at 37° C. in 5% CO2. The next day test compounds are made up at 2× the final concentration and 100 ul are added to each cell well. The final concentration of DMSO is 0.2% and the DMSO control wells are plated in row G. The plates are then placed in the incubator for 48 hours. […] The cell plate is placed back in the incubator for another 24 hours. At 72 hours post compound addition, 10 mL/plate of Promega Cell Titer Glo reagent is thawed and mixed. The cell plate is removed from the incubator and allowed to equilibrate to room temperature. Then 100 ul of Promega Cell Titer Glo reagent is added to each well of media. The cell plate is then placed on an orbital shaker for 10 minutes and then allowed to sit at room temperature for 20 minutes. The plate is then read for luminescence with an integration time of 500 ms.

Consider `N#Cc1ccnc(N2C(=O)CC[C@H]2C(=O)N(c2ccc3[nH]ccc3c2)[C@H](C(=O)NC2CC(F)(F)C2)c2ccccc2Cl)c1` [Compound 206, (S)—N—((S)-1-(2-Chlorophenyl)-2-((3,3-difluorocyclobutyl)amino)-2-oxoethyl)-1-(4-cyanopyridin-2-yl)-N-(1H-indol-5-yl)-5-oxopyrrolidine-2-carboxamide], for which the IC50 is below 100 nM.

`N#Cc1ccnc(N2C(=O)OCC[C@H]2C(=O)N(c2cccc(F)c2)C(C(=O)NC2CC(F)(F)C2)c2ccccc2Cl)c1` (stereo partly drawn) [Compound 90, (4S)—N-(1-(2-Chlorophenyl)-2-(3,3-difluorocyclobutylamino)-2-oxoethyl)-3-(4-cyanopyridin-2-yl)-N-(3-fluorophenyl)-2-oxo-1,3-oxazinane-4-carboxamide] showed an IC50 below 100 nM.

As for `N#Cc1cc(F)cc(N(C(=O)[C@@H]2CCC(=O)N2c2nccc(C#N)n2)[C@H](C(=O)NC2CCC(F)(F)CC2)c2ccccc2Cl)c1` [Compound 185, (S)—N—((S)-1-(2-Chlorophenyl)-2-((4,4-difluorocyclohexyl)amino)-2-oxoethyl)-N-(3-cyano-5-fluorophenyl)-1-(4-cyanopyrimidin-2-yl)-5-oxopyrrolidine-2-carboxamide], the IC50 is below 100 nM.

With `N#Cc1ccnc(N2C(=O)[C@@H](O)C[C@H]2C(=O)N(c2cccc(F)c2)[C@H](C(=O)NC2CC(F)(F)C2)c2ccccc2Cl)n1` [Compound 119, (2S,4S)—N—((S)-1-(2-Chlorophenyl)-2-(3,3-difluorocyclobutylamino)-2-oxoethyl)-1-(4-cyanopyrimidin-2-yl)-N-(3-fluorophenyl)-4-hydroxy-5-oxopyrrolidine-2-carboxamide], the IC50 was 100 to 500 nM.

Turning to `N#Cc1ccc(N2C(=O)CC[C@H]2C(=O)N(c2cccc(F)c2)[C@H](C(=O)NC2CC(F)(F)C2)c2ccccc2Cl)nc1` [Compound 47], the IC50 lay within 100 to 500 nM.

`O=C(NC1CC(F)(F)C1)C(c1ccccc1Cl)N(C(=O)C1CCC(=O)N1c1cnccn1)c1cccc(F)c1` (stereo not shown) [Compound 18] came in with a concentration for half-maximal inhibition (IC50) below 100 nM.

Consider `N#Cc1ccnc(N2C(=O)CNC[C@H]2C(=O)N(c2cc(F)cc(F)c2)[C@H](C(=O)NC2CC(F)(F)C2)c2ccccc2Cl)c1` [Compound 100, (S)—N—((S)-1-(2-Chlorophenyl)-2-((3,3-difluorocyclobutyl)amino)-2-oxoethyl)-1-(4-cyanopyridin-2-yl)-N-(3,5-difluorophenyl)-6-oxopiperazine-2-carboxamide], for which the IC50 is below 100 nM.

`N#Cc1cccc(N(C(=O)[C@@H]2C[C@@H](O)C(=O)N2c2cc(C#N)ccn2)C(C(=O)NC2CC(F)(F)C2)c2ccccc2Cl)c1` (stereo partly drawn) [Compound 170, (2S,4R)—N-(1-(2-chlorophenyl)-2-((3,3-difluorocyclobutyl)amino)-2-oxoethyl)-N-(3-cyano-phenyl)-1-(4-cyanopyridin-2-yl)-4-hydroxy-5-oxopyrrolidine-2-carboxamide] came in with an IC50 below 100 nM.

Compound `N#Cc1ccnc(N2C(=O)[C@H](O)C[C@H]2C(=O)N(c2cccc(F)c2)[C@H](C(=O)NC2CCC(F)(F)CC2)c2ccccc2Cl)c1` [Compound 121, (2S,4R)—N—((S)-1-(2-Chlorophenyl)-2-((4,4-difluorocyclohexyl)amino)-2-oxoethyl)-1-(4-cyanopyridin-2-yl)-N-(3-fluorophenyl)-4-hydroxy-5-oxopyrrolidine-2-carboxamide] gave an IC50 below 100 nM.

Compound `N#Cc1ccnc(N2C(=O)CC[C@H]2C(=O)N(c2cccc(F)c2)[C@H](C(=O)NC2CC(F)(F)C2)c2ccccc2)c1` [Compound 138, (S)-1-(4-Cyanopyridin-2-yl)-N—((S)-2-((3,3-difluorocyclobutyl)amino)-2-oxo-1-phenylethyl)-N-(3-fluorophenyl)-5-oxopyrrolidine-2-carboxamide] yielded an IC50 below 100 nM.

`Cn1ccc2cc(N(C(=O)[C@@H]3CCC(=O)N3c3cc(C#N)ccn3)[C@H](C(=O)NC3CC(F)(F)C3)c3ccccc3Cl)ccc21` [Compound 209, (S)—N—((S)-1-(2-Chlorophenyl)-2-((3,3-difluorocyclobutyl)amino)-2-oxoethyl)-1-(4-cyanopyridin-2-yl)-N-(1-methyl-1H-indol-5-yl)-5-oxopyrrolidine-2-carboxamide]: the IC50 was below 100 nM.

`CS(=O)(=O)c1cc(F)cc(N(C(=O)[C@@H]2CCC(=O)N2c2nccc(C#N)n2)[C@H](C(=O)NC2CCC(F)(F)CC2)c2ccccc2Cl)c1` [Compound 168, (S)—N—((S)-1-(2-Chlorophenyl)-2-((4,4-difluorocyclohexyl)amino)-2-oxoethyl)-1-(4-cyanopyrimidin-2-yl)-N-(3-fluoro-5-(methylsulfonyl)phenyl)-5-oxopyrrolidine-2-carboxamide]: the IC50 is below 100 nM.

As to `N#Cc1ccnc(N2C(=O)CC[C@H]2C(=O)N(c2cccc3[nH]ncc23)C(C(=O)NC2CC(F)(F)C2)c2ccccc2Cl)c1` (stereo partly drawn) [Compound 152, (2S)—N-(1-(2-Chlorophenyl)-2-((3,3-difluorocyclobutyl)amino)-2-oxoethyl)-1-(4-cyanopyridin-2-yl)-N-(1H-indazol-4-yl)-5-oxopyrrolidine-2-carboxamide], the IC50 was below 100 nM.

Compound `N#Cc1ccnc(N2C(=O)CC[C@H]2C(=O)N(c2ccc3[nH]ncc3c2)[C@H](C(=O)NC2CCC(F)(F)CC2)c2ccccc2Cl)c1` [Compound 203, (S)—N—((S)-1-(2-Chlorophenyl)-2-((4,4-difluorocyclohexyl)amino)-2-oxoethyl)-1-(4-cyanopyridin-2-yl)-N-(1H-indazol-5-yl)-5-oxopyrrolidine-2-carboxamide] returned an IC50 below 100 nM.

Consider `N#Cc1cccc(N(C(=O)[C@@H]2CCC(=O)N2c2cc(C#N)ccn2)[C@H](C(=O)NC2CCC(F)(F)CC2)c2ccccc2Cl)c1` [Compound 166, (S)—N—((S)-1-(2-Chlorophenyl)-2-((4,4-difluorocyclohexyl)amino)-2-oxoethyl)-N-(3-cyanophenyl)-1-(4-cyanopyridin-2-yl)-5-oxopyrrolidine-2-carboxamide], for which the IC50 was below 100 nM.

With `N#Cc1ccnc(N2C(=O)CC[C@H]2C(=O)N(c2cccc(F)c2)[C@H](C(=O)NC2CCC(F)(F)CC2)c2ccccc2Cl)c1F` [Compound 83, (S)—N—((S)-1-(2-Chlorophenyl)-2-((4,4-difluorocyclohexyl)amino)-2-oxoethyl)-1-(4-cyano-3-fluoropyridin-2-yl)-N-(3-fluorophenyl)-5-oxopyrrolidine-2-carboxamide], the IC50 was below 100 nM.

`Cc1ccc(N2C(=O)CC[C@H]2C(=O)N(c2cccc(F)c2)[C@H](C(=O)NC2CC(F)(F)C2)c2ccccc2Cl)nc1` [Compound 21] registered an IC50 of 100 to 500 nM.

With `N#Cc1ccnc(N2C(=O)CC[C@H]2C(=O)N(c2cccc(C3(O)CC3)c2)[C@H](C(=O)NC2CC(F)(F)C2)c2ccccc2Cl)c1` [Compound 140, (S)—N—((S)-1-(2-Chlorophenyl)-2-(3,3-difluorocyclobutylamino)-2-oxoethyl)-1-(4-cyanopyridin-2-yl)-N-(3-(1-hydroxycyclopropyl)phenyl)-5-oxopyrrolidine-2-carboxamide], the IC50 was below 100 nM.

As to `N#Cc1ccnc(N2C(=O)OC[C@H]2C(=O)N(c2cncc(F)c2)[C@H](C(=O)NC2CCC(F)(F)CC2)c2ccccc2Cl)c1` [Compound 132, (S)—N—((S)-1-(2-Chlorophenyl)-2-((4,4-difluorocyclohexyl)amino)-2-oxoethyl)-3-(4-cyanopyridin-2-yl)-N-(5-fluoropyridin-3-yl)-2-oxooxazolidine-4-carboxamide], the IC50 was below 100 nM.
